From patent US10590086B2, “Pharmaceutical compound” (IOmet Pharma Ltd., priority 2014, dated 2020)

How the values were obtained:
TDO [1] = biological target: T1, TDO (Homo sapiens, UniProt P48775); experiment: hTDO biochemical coupled assay; settings: 330 μM L-tryptophan, 17 minutes, room temperature; read-out: hTDO biochemical assay pIC50 (converted)
IDO [2] = biological target: T2, IDO (Homo sapiens, UniProt P14902); experiment: hIDO biochemical coupled assay; settings: 45 μM L-tryptophan, 17 minutes, room temperature; read-out: hIDO biochemical assay pIC50 (converted)
TDO [3] = biological target: T1, TDO; experiment: A172 kynurenine cell-based assay; set-up: This assay utilised cancer cells which expressed either TDO or IDO; endogenous in cells; host or cells: A172 (human glioblastoma); settings: A172 human glioblastoma cells, 48 hours, 500 μM L-tryptophan; read-out: A172 Kynurenine cell based assay pIC50 (converted)
How it was run: (§1)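 First, A172 or SKOV3 cells were seeded in phenol red-free RPMI, 10% FCS, 2 mM L-glutamine, 500 μM L-tryptophan; SKOV3 received 500 ng/ml IFN-γ for IDO induction. Next came compound exposure, 48 hours, 37° C. Finally, cells were spun out, supernatant treated with Erhlich's reagent, absorbance read at 490 nm.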

IDO [4] = biological target: T2, IDO; experiment: SKOV3 kynurenine cell-based assay (IDO induced by IFN-γ); set-up: IDO expression was induced in the SKOV3 cells by the addition of 500 ng/ml IFN-γ; endogenous in cells; host or cells: SKOV3 (human ovarian adenocarcinoma), induced with IFN-γ; settings: SKOV3 human ovarian adenocarcinoma cells, 500 ng/ml IFN-γ, 48 hours, 500 μM L-tryptophan; read-out: SKOV3 Kynurenine cell based assay pIC50 (converted)
How it was run: as §1

T2 sequence (P14902 whole entry): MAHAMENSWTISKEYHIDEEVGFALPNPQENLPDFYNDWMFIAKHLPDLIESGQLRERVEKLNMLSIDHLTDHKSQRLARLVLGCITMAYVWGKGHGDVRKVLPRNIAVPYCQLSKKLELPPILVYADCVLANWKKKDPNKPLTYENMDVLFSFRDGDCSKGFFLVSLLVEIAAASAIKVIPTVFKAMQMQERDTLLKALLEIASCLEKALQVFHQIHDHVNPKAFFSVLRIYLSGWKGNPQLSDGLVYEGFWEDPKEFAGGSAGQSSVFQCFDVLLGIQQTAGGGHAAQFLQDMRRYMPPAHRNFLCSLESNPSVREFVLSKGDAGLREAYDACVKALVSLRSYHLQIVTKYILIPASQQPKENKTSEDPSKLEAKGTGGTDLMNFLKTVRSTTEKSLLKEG
T1 sequence (P48775 whole entry): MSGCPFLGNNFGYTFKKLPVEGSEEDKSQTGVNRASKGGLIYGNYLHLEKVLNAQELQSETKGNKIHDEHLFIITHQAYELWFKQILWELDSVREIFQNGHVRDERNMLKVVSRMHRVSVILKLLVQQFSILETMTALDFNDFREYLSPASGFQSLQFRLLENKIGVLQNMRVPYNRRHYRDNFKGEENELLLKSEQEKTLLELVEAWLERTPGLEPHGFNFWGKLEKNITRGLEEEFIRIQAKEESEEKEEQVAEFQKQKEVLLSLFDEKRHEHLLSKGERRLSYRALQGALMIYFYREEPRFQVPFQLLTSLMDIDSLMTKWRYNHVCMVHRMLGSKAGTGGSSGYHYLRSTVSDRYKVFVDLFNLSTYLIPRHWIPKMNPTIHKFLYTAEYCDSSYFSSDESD

SMILES	IC50 (TDO [1])	IC50 (IDO [2])	IC50 (TDO [3])	IC50 (IDO [4])
Cn1ccnc1N1CCN(c2cc(Cl)cc3[nH]ncc23)CC1 [Compound 436]	< 3.16 µM	> 100 µM	< 3.16 µM	> 100 µM
CS(=O)(=O)Nc1ccc(C2CCN(c3cc(Cl)cc4[nH]ncc34)CC2)cc1 [Compound 437]	< 3.16 µM	3.24 to 31.6 µM	< 3.16 µM	< 3.16 µM
O=C1N[C@H]2CC[C@@H]1CN(c1cc(Br)cc3[nH]ncc13)C2 [Compound 438]	< 3.16 µM	3.24 to 31.6 µM	< 3.16 µM	> 100 µM
O=C1N[C@H]2CC[C@@H]1CN(c1cc(C(F)(F)F)cc3[nH]ncc13)C2 [Compound 439]	< 3.16 µM	3.24 to 31.6 µM	< 3.16 µM	> 100 µM
CNC(=O)c1ccc(C2CCN(c3cc(Cl)cc4[nH]ncc34)CC2)cc1 [Compound 440]	< 3.16 µM	3.24 to 31.6 µM	< 3.16 µM	3.24 to 31.6 µM
CC(=O)Nc1ccc(C2CCN(c3cc(Cl)cc4[nH]ncc34)CC2)cc1 [Compound 441]	< 3.16 µM	> 100 µM	< 3.16 µM	< 3.16 µM
Clc1cc(N2CCC(c3cscn3)CC2)c2cn[nH]c2c1 [Compound 442]	< 3.16 µM	3.24 to 31.6 µM	< 3.16 µM	> 100 µM
O=C1NC(=O)C(C2CCN(c3cc(Cl)cc4[nH]ncc34)CC2)N1 (centres unmarked) [Compound 443]	< 3.16 µM	> 100 µM	< 3.16 µM	> 100 µM
CN1C(=O)NC(C2CCN(c3cc(Cl)cc4[nH]ncc34)CC2)C1=O (centres unmarked) [Compound 444]	< 3.16 µM	> 100 µM	< 3.16 µM	> 100 µM
CNC(=O)c1ccc(N2CCN(c3cc(Cl)cc4[nH]ncc34)CC2)cc1 [Compound 445]	< 3.16 µM	> 100 µM	< 3.16 µM	< 3.16 µM
CC(=O)NCC1(C)CN(c2cc(Cl)cc3[nH]ncc23)C1 [Compound 446]	< 3.16 µM	> 100 µM	< 3.16 µM	< 3.16 µM
CN1C(=O)[C@@H]2CC[C@H]1CN(c1cc(C(F)(F)F)cc3[nH]ncc13)C2 [Compound 447]	< 3.16 µM	3.24 to 31.6 µM	< 3.16 µM	> 100 µM
Clc1cc(N2C[C@H]3CC[C@@H](C2)NC3)c2cn[nH]c2c1 [Compound 448]	< 3.16 µM	3.24 to 31.6 µM	< 3.16 µM	> 100 µM
CN(C1CCN(c2cc(Cl)cc3[nH]ncc23)CC1(C)C)S(C)(=O)=O (centres unmarked) [Compound 449]	< 3.16 µM	3.24 to 31.6 µM	< 3.16 µM	3.24 to 31.6 µM
CC(=O)N(C)C1CCN(c2cc(Cl)cc3[nH]ncc23)CC1(C)C (centres unmarked) [Compound 450]	< 3.16 µM	< 3.16 µM	< 3.16 µM	< 3.16 µM
Clc1cc(N2CCC(N3CCOCC3)CC2)c2cn[nH]c2c1 [Compound 451]	< 3.16 µM	32.4 to 100 µM	< 3.16 µM	> 100 µM
CC(=O)N1CCC2(CC1)CN(c1cc(Cl)cc3[nH]ncc13)C2 [Compound 452]	< 3.16 µM	> 100 µM	< 3.16 µM	< 3.16 µM
CS(=O)(=O)N1CCN(C2CCN(c3cc(Cl)cc4[nH]ncc34)CC2)CC1 [Compound 453]	< 3.16 µM	3.24 to 31.6 µM	< 3.16 µM	> 100 µM
CC(=O)N1CCN(c2cc(Cl)cc3[nH]ncc23)CC1CO (centres unmarked) [Compound 454]	< 3.16 µM	32.4 to 100 µM	< 3.16 µM	> 100 µM
CN1C(=O)[C@@H]2CC[C@H]1CN(c1cc(Br)cc3[nH]ncc13)C2 [Compound 455]	< 3.16 µM	3.24 to 31.6 µM	< 3.16 µM	> 100 µM
